According to patent publication US8344025B2, “Oxalic acid derivatives and use thereof as physiological cooling active ingredients” (Symrise AG, priority 2007, dated 2013):

Test system: panel of experts
Test: Organoleptic test of cooling action in confectioner's fondant, rated by a panel of experts
Type: in vivo
Conditions: scale from 1 (no cooling action) to 9 (extremely strong cooling action), 0.05 wt. % relative to the complete preparation
Method: The compounds according to Examples 1 to 12 were tested for their organoleptic properties, in particular their cooling action. To this end, they were dissolved, in each case in a specific final concentration, in a mass prepared from sucrose (saccharose) and water (confectioner's fondant, supplier Nordzucker AG, Nordstemmen) and evaluated by a panel of experts. Sensory impressions were rated and the cooling action was assessed on a scale from 1 (no cooling action) to 9 (extremely strong cooling action). The results were convincing in every case.

## CNC(=O)C(=O)O[C@@H]1C[C@H](C)CC[C@H]1C(C)C [Example 2, L-menthyl N-methyl oxamate]
  cooling action: 6
